Results from patent US20250195521A1 (Revolution Medicines, Inc., priority 2020, published 2025).
Like-named read-outs stand apart in the source and are kept apart here.

Legend:
[1] = test system: Capan-1 cells (K-Ras G12V); test: CellTiter-Glo cell viability, Capan-1; assay type: cell-based, human; conditions: Homo sapiens, CAPAN-1, 120 h, K-Ras G12V, 5-day treatment; read-out: Capan-1 Cell Viability IC50
Outline: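 Five-day treatment of K-Ras mutant cells with directly dispensed compound; ATP-based luminescence endpoint. Percent of DMSO signal fit to four-parameter logistic curve.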

KRAS G12C = KRAS G12C (Homo sapiens (Human), UniProt P01116+P62937, G12C); test: Ras-Raf disruption/FRET/MOA assay (BRAF RBD, Cyclophilin A); assay type: biochemical; conditions: read-out: KRAS G12C FRET IC50
Outline: (§1)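 25 μM tagless Cyclophilin A, 12.5 nM His6-Ras-GMPPNP and 50 nM GST-BRAF RBD in HEPES pH 7.3 buffer with 5 mM MgCl2, with compound (10-point 3-fold series from 30 μM final) for 3 h at 25 °C. Anti-His Eu and anti-GST APC then added for 1.5 h. IC50 from TR-FRET ratio decrease versus DMSO.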

[2] = test system: K-Ras G12C (NCI-H358 cells); test: Potency assay: pERK in NCI-H358 cells; assay type: cell-based, human; conditions: read-out: pERK EC50 (H358 KRAS G12C)
Outline: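 Cells plated the day before were exposed for 4 h at 37° C, 5% CO2 to a 10-point, 3-fold DMSO dilution series (10 mM top stock), in duplicate. Phospho-ERK was read by AlphaLISA SureFire Ultra or by In-Cell Western with DRAQ5 DNA stain, and IC50 came from a 4-parameter sigmoidal fit.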

NCI-H358 (K-Ras G12C) = test: CellTiter-Glo cell viability assay, NCI-H358; assay type: cell-based, human
Outline: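 Five-day compound treatment of NCI-H358 cells, then CellTiter-Glo luminescence, percent of DMSO, four-parameter logistic fit.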

[3] = target: K-Ras G12C(GMP-PNP) binding to BRAF RBD (Homo sapiens (Human), UniProt P01116+P62937, G12C); test: Disruption of BRAF RBD interaction with K-Ras (FRET / MOA assay), K-Ras G12C; assay type: biochemical
Description: Note—The following protocol describes a procedure for monitoring disruption of K-Ras G12C(GMP-PNP) binding to BRAF^RBD by a compound of the invention. This protocol may also be executed substituting other Ras proteins or nucleotides.
The purpose of this biochemical assay was to measure the ability of test compounds to facilitate ternary complex formation between a nucleotide-loaded K-Ras isoform and Cyclophilin A; the resulting ternary complex disrupts binding to a BRAF^RBD construct, inhibiting K-Ras signaling through a RAF effector. Data is reported as IC50 values.
Compound was present in plate wells as a 10-point 3-fold dilution series starting at a final concentration of 30 μM. After incubation at 25° C. for 3 hours, a mixture of Anti-His Eu—W1024 and anti-GST allophycocyanin was then added to assay sample wells at final concentrations of 10 nM and 50 nM, respectively, and the reaction incubated for an additional 1.5 hours. […] Compounds that facilitate disruption of a K-Ras: RAF complex were identified as those eliciting a decrease in the TR-FRET ratio relative to DMSO control wells.

KRAS G12D = KRAS G12D (Homo sapiens (Human), UniProt P01116+P62937, G12D); test: Ras-Raf disruption/FRET/MOA assay (BRAF RBD, Cyclophilin A); assay type: biochemical; conditions: read-out: KRAS G12D FRET IC50
Outline: as §1

KRAS G13C = KRAS G13C (Homo sapiens (Human), UniProt P01116+P62937, G13C); test: as above; assay type: biochemical; conditions: read-out: KRAS G13C FRET IC50
Outline: as §1

KRAS G13D = KRAS G13D (Homo sapiens (Human), UniProt P01116+P62937, G13D); test: as above; assay type: biochemical; conditions: read-out: KRAS G13D FRET data IC50
Outline: as §1

KRAS WT = KRAS WT (Homo sapiens (Human), UniProt P01116+P62937); test: as above; assay type: biochemical; conditions: read-out: KRAS WT FRET data IC50
Outline: as §1

KRAS G12S = KRAS G12S (Homo sapiens (Human), UniProt P01116+P62937, G12S); test: as above; assay type: biochemical; conditions: read-out: KRAS G12S FRET IC50
Outline: as §1

KRAS G12V = KRAS G12V (Homo sapiens (Human), UniProt P01116+P62937, G12V); test: as above; assay type: biochemical; conditions: read-out: KRAS G12V FRET IC50
Outline: as §1

[4] = Homo sapiens, NCI-H358 cells, 4 hours
[5] = Homo sapiens, NCI-H358, 120 h, 5-day treatment, read-out: H358 Cell Viability assay data (K-Ras G12C, IC50)
[6] = 5-day treatment, read-out: H358 Cell Viability assay data (K-Ras G12C, IC50)

Sequence of KRAS G12C (P01116-2 other isoform, or with tags, fused parts or gaps G12C): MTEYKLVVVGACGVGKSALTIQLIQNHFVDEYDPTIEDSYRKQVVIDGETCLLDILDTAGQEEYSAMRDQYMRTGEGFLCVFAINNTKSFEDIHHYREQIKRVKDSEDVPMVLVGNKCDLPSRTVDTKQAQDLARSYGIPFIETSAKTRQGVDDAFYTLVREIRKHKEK
Sequence of KRAS G12C (P62937 whole entry): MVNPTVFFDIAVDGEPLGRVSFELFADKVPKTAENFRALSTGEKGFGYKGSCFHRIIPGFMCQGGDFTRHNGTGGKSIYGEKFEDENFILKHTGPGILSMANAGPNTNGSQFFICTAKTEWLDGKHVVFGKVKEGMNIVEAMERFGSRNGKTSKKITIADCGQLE
Sequence of K-Ras G12C(GMP-PNP) binding to BRAF RBD (P01116 other isoform, or with tags, fused parts or gaps G12C): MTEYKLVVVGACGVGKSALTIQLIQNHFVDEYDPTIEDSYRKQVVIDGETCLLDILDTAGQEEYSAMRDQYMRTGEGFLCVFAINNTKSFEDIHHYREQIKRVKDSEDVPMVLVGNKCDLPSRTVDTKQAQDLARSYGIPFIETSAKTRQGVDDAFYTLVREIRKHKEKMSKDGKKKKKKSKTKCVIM
Sequence of K-Ras G12C(GMP-PNP) binding to BRAF RBD (P62937 whole entry): as the sequence (P62937 whole entry) above
Sequence of KRAS G12D (P01116 other isoform, or with tags, fused parts or gaps G12D): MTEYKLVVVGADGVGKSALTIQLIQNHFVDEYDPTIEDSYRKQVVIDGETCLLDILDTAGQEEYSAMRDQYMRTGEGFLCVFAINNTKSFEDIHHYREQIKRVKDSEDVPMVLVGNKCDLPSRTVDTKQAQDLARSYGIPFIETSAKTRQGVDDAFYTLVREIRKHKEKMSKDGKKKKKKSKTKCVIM
Sequence of KRAS G12D (P62937 whole entry): as the sequence (P62937 whole entry) above
Sequence of KRAS G13C (P01116 other isoform, or with tags, fused parts or gaps G13C): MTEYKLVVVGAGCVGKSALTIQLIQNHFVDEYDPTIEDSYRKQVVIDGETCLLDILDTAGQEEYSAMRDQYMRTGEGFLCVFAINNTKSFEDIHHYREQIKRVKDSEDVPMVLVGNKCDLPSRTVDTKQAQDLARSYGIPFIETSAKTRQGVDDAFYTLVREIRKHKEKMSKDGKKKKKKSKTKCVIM
Sequence of KRAS G13C (P62937 whole entry): as the sequence (P62937 whole entry) above
Sequence of KRAS G12V (P01116 other isoform, or with tags, fused parts or gaps G12V): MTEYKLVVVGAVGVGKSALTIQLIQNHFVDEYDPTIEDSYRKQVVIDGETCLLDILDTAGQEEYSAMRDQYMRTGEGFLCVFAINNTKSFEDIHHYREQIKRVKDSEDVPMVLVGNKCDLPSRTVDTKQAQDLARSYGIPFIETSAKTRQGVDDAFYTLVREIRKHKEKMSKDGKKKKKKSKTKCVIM
Sequence of KRAS G12V (P62937 whole entry): as the sequence (P62937 whole entry) above
Sequence of KRAS G12S (P01116 other isoform, or with tags, fused parts or gaps G12S): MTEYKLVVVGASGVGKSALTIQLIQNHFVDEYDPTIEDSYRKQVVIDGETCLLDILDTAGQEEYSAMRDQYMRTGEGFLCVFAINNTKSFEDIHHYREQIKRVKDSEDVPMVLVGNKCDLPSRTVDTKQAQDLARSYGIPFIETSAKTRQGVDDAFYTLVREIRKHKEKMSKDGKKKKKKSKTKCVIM
Sequence of KRAS G12S (P62937 whole entry): as the sequence (P62937 whole entry) above
Sequence of KRAS WT (P01116 other isoform, or with tags, fused parts or gaps): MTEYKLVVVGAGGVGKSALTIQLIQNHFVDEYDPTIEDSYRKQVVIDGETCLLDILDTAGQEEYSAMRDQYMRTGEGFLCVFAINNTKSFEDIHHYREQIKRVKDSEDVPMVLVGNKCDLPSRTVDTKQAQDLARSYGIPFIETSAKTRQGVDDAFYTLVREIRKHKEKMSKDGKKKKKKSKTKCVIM
Sequence of KRAS WT (P62937 whole entry): as the sequence (P62937 whole entry) above
Sequence of KRAS G13D (P01116 other isoform, or with tags, fused parts or gaps G13D): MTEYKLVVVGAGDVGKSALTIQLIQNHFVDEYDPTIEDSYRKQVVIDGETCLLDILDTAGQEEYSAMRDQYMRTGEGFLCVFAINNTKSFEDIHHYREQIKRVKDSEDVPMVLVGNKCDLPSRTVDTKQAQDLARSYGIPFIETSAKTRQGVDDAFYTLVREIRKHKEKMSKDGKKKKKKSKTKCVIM
Sequence of KRAS G13D (P62937 whole entry): as the sequence (P62937 whole entry) above

Compound	EC50 [2, 4] [nM]	IC50 (NCI-H358 (K-Ras G12C); [5]) [µM]	IC50 ([3]; read-out: KRAS G12C FRET IC50) [nM]	other results
CCn1c(-c2cccnc2[C@H](C)OC)c2c3cc(ccc31)-c1cc(O)cc(c1)C[C@H](NC(=O)[C@H](C(C)C)N(C)C(=O)[C@@H]1CNC[C@@H]1C)C(=O)N1CCC[C@H](N1)C(=O)OCC(C)(C)C2 [Compound A128]	< 5000	< 0.01	10 to 100	IC50 [1]: > 10000 nM; IC50 (KRAS G12C): 10 to 100 nM
CCn1c(-c2cccnc2[C@H](C)OC)c2c3cc(ccc31)-c1cc(O)cc(c1)C[C@H](NC(=O)[C@H](C(C)C)N(C)C(=O)[C@H]1CCN(C(=O)[C@@]3(C)CCCN3)C1)C(=O)N1CCC[C@H](N1)C(=O)OCC(C)(C)C2 [Compound A135]	–	< 0.01	< 10	IC50 [1]: 1000 to 10000 nM; IC50 (NCI-H358 (K-Ras G12C); [6]): 0.01 to 0.1 µM
CCn1c(-c2cccnc2[C@H](C)OC)c2c3cc(ccc31)-c1cc(O)cc(c1)C[C@H](NC(=O)[C@H](C(C)C)N(C)C(=O)C1(CN)CC1)C(=O)N1CCC[C@H](N1)C(=O)OCC(C)(C)C2 [Compound A139]	–	0.1 to 1	10 to 100	IC50 (KRAS G12C): 10 to 100 nM; IC50 (KRAS G12D): 10 to 100 nM; IC50 (KRAS G13C): 10 to 100 nM; IC50 (KRAS G13D): 10 to 100 nM; IC50 (KRAS WT): 10 to 100 nM
CCn1c(-c2cccnc2[C@H](C)OC)c2c3cc(ccc31)-c1cc(O)cc(c1)C[C@H](NC(=O)[C@H](C(C)C)N(C)C(=O)C1(N)CC1)C(=O)N1CCC[C@H](N1)C(=O)OCC(C)(C)C2 [Compound A168]	–	–	100 to 1000	EC50 ([2]; Homo sapiens, NCI-H358, 4 h): < 5000 nM; IC50 (NCI-H358 (K-Ras G12C); Homo sapiens, NCI-H358, 120 h, read-out: H358 Cell Viability assay data (K-Ras G12C, IC50, uM), 5-day treatment): 0.01 to 0.1 µM
CCn1c(-c2cccnc2[C@H](C)OC)c2c3cc(ccc31)-c1cc(O)cc(c1)C[C@H](NC(=O)[C@H](C(C)C)N(C)C(=O)N1CC(N(C)C)C1)C(=O)N1CCC[C@H](N1)C(=O)OCC(C)(C)C2 [Compound A171]	< 5000	0.1 to 1	1000 to 10000	–
CCn1c(-c2cccnc2[C@H](C)OC)c2c3cc(ccc31)-c1cc(O)cc(c1)C[C@H](NC(=O)[C@@H](NC(C)=O)C(C)(C)OC)C(=O)N1CCC[C@H](N1)C(=O)OCC(C)(C)C2 [Compound A172]	< 5000	0.01 to 0.1	10 to 100	–
CCn1c(-c2cccnc2[C@H](C)OC)c2c3cc(ccc31)-c1csc(n1)C[C@H](NC(=O)[C@H](C(C)C)N(C)C(=O)N1CCN(C(=O)CN(C)C)CC1)C(=O)N1CCC[C@H](N1)C(=O)OCC(C)(C)C2 [Compound A290]	< 5000	< 0.01	< 10	–
CCn1c(-c2cccnc2[C@H](C)OC)c2c3cc(ccc31)-c1csc(n1)C[C@H](NC(=O)[C@H](C(C)C)N(C)C(=O)N1CCCOCC1)C(=O)N1CCC[C@H](N1)C(=O)OCC(C)(C)C2 [Compound A335]	< 5000	0.01 to 0.1	100 to 1000	–
CCO[C@@H]1c2nc(cs2)-c2ccc3c(c2)c(c(-c2cc([C@H]4CCN5CCOC[C@@H]5C4)cnc2[C@H](C)OC)n3CC)CC(C)(C)COC(=O)[C@@H]2CCCN(N2)C(=O)[C@H]1NC(=O)[C@H]1[C@H](C)[C@@H]1C [Compound A390, (1r,2R,3S)—N-((6^3S,3S,4S,Z)-3-ethoxy-1^1-ethyl-1^2-(2-((S)-1-methoxyethyl)-5-((8R,9aS)-octahydropyrido [2,1-c][1,4]oxazin-8-yl)pyridin-3-yl)-10,10-dimethyl-5,7-dioxo-6^1,6^2,6^3,6^4,6^5,6^6-hexahydro-1^1H-8-oxa-2 (4,2)-thiazola-1 (5,3)-indola-6 (1,3)-pyridazinacycloundecaphane-4-yl)-2,3-dimethylcyclopropane-1-carboxamide]	–	–	100 to 1000	EC50 ([2]; NCI-H358 cells, 4 hours): < 5000 nM; IC50 (NCI-H358 (K-Ras G12C); [6]): 0.1 to 1 µM
CCn1c(-c2cccnc2[C@H](C)OC)c2c3cc(ccc31)C1=C[C@@H](O)CN(C1)C[C@H](NC(=O)[C@H]1[C@H](C)[C@@H]1C)C(=O)N1CCC[C@H](N1)C(=O)OCC(C)(C)C2 [Compound A424, (1R,2R,3S)—N-((2^3R,6^3S,4S)-1^1-ethyl-23-hydroxy-1^2-(2-((S)-1-methoxyethyl)pyridin-3-yl)-10,10-dimethyl-5,7-dioxo-2^1,2^2,2^3,2^6,6^1,6^2,6^3,6^4,6^5,6^6-decahydro-1^1H-8-oxa-1 (5,3)-indola-6 (1,3)-pyridazina-2 (5,1)-pyridinacycloundecaphane-4-yl)-2,3-dimethylcyclopropane-1-carboxamide]	–	–	100 to 1000	IC50 (KRAS G12C): 10 to 100 nM; IC50 (KRAS G12D): 100 to 1000 nM; IC50 (KRAS G12S): 10 to 100 nM; IC50 (KRAS G12V): 10 to 100 nM; IC50 (KRAS G13C): 10 to 100 nM; EC50 ([2]; NCI-H358 cells, 4 hours): < 5000 nM; IC50 (NCI-H358 (K-Ras G12C); [6]): 0.1 to 1 µM
CCn1c(-c2cccnc2[C@H](C)OC)c2c3cc(ccc31)-c1csc(n1)C[C@H](NC(=O)[C@H](C(C)C)N(C)C(=O)N1CC[C@H]3CN(C)C[C@H]31)C(=O)N1CCC[C@H](N1)C(=O)OCC(C)(C)C2 [Compound A471]	–	0.01 to 0.1	100 to 1000	IC50 [1]: 100 to 1000 nM
CCn1c(-c2cccnc2[C@H](C)OC)c2c3cc(ccc31)-c1csc(n1)C[C@H](NC(=O)[C@H](C(C)C)N(C)C(=O)N1CC3(CCN(C)CC3)C1)C(=O)N1CCC[C@H](N1)C(=O)OCC(C)(C)C2 [Compound A513]	< 5000	< 0.01	10 to 100	–
CCn1c(-c2cccnc2[C@H](C)OC)c2c3cc(ccc31)-c1csc(n1)C[C@H](NC(=O)[C@H](C1CCCC1)N(C)C(=O)N1CCN(C)CC1)C(=O)N1CCC[C@H](N1)C(=O)OCC(C)(C)C2 [Compound A525]	< 5000	< 0.01	10 to 100	–
CCn1c(-c2cccnc2[C@H](C)OC)c2c3cc(ccc31)-c1csc(n1)C[C@H](NC(=O)[C@H](C(C)C)N(C)C(=O)N1CCC(N(C)C)CC1)C(=O)N1CCC[C@H](N1)C(=O)OCC(C)(C)C2 [Compound A571]	< 5000	< 0.01	–	IC50 ([3]; KRAS G12C FRET IC50): 100 to 1000 nM
CCn1c(-c2cccnc2[C@H](C)OC)c2c3cc(ccc31)-c1csc(n1)C[C@H](NC(=O)[C@H](C(C)C)N(C)C(=O)N1CCC13CCOCC3)C(=O)N1CCC[C@H](N1)C(=O)OCC(C)(C)C2 [Compound A601]	< 5000	< 0.01	< 10	–
